In patent US6825001B2, “DNA molecules and protein displaying improved triazine compound degrading ability” (Regents of the University of Minnesota, priority 1997, dated 2004):
“Also recorded” adds a separate entry of the source.

B1: A7: AtzA homolog, gene SEQ ID NO:3, protein SEQ ID NO:5 (protein)
chain: ASMVTLTPLFSFSLLNCTRKASRSVMSASSWLVTCGMTTQLRCRFFDGIISALRRVTHYWRHIMQTLSIQHGTLVTMDQYRRVLGDSWVHVQDGRIVALGVHAESVPPPADRVIDARGKVVLPGFINAHTHVNQILLRGGPSHGRQFYDWLFNVVYPGQKAMRPEDVAVAVRLYCAEAVRSGITTINENADSAIYPGNIEAAMAVYGEVGVRVVYARMFFDRMDGRIQGYVDALKARSPQVELCSIMEGTAVAKDRITALSDQYHGTAGGRISVWPAPATTTAVTVEGMRWAQAFARDRAVMWTLHMAESDHDERIHGMSPAEYMECYGLLDERLQVAHCVYFDRKDVRLLHRHNVKVASQVVSNAYLGSGVAPVPEMVERGMAVGIGTDNGNSNDSVNMIGDMKFMAHIHRAVHRDADVLTPEKILEMATIDGARSLGMDHEIGSIETGKRADLILLDLRHPQTTPHHHLAATIVFQAYGNEVDTVLIDGNVVMENRRLSFLPPERELAFLEEAQSRATAILQRANMVANPAWRSLEMTPLLHPPPLEEIAAILARLGLGGGHDLDGYRIAMNAALPSFARVESLVGEGRLRAPASRRSE

Assays:
[1] = tested on: E. coli DH5α (pMD1 or pMD2); experiment: effect of ammonium chloride on atrazine degradation, E. coli clones; type: cell-based
Source text: (§1) Therefore, it was not necessary to use media free of exogenous ammonia in the screening assays.

[2] = tested on: Pseudomonas species strain ADP; experiment: effect of ammonium chloride on atrazine clearing on solid media, Pseudomonas; type: cell-based; conditions: solid media with 500 ppm atrazine, 2 weeks, 28° C. or 37° C.
Source text: as §1

[3] = TERBUTHYLAZINE-degrading activity of AtzA homologs; type: biochemical; conditions: compared with wild-type enzyme
Protocol: TERBUTHYLAZINE was incorporated in solid LB medium at a final concentration of about 400-500 μg/ml to produce an opaque suspension of sample particles in the clear agar. […] HPLC analysis was performed with a Hewlett Packard HP 1090 Liquid Chromatograph system equipped with a photodiode array detector and interfaced to an HP 79994A Chemstation. TERBUTHYLAZINE and its metabolites were resolved by using an analytical C^18 reverse-phase Nova-Pak HPLC column (4 μm-diameter spherical packing, 150 by 3.9 mm; Waters Chromatography, Milford, Mass.) and an acetonitrile (ACN) gradient, in water, at a flow rate of 1.0 ml min^−1. Linear gradients of 0 to 6 min, 10 to 25% ACN; 6 to 21 min, 25 to 65% ACN; 21 to 23 min, 65 to 100% ACN; and 23 to 25 min, 100% ACN were used. Spectral data of the column eluent were acquired between 200 and 400 nm (12-nm bandwidth per channel) at a sampling frequency of 640 ms. Spectra were referenced against a signal of 500 nm.
Sample 1 is a control sample without enzyme. […] Sample 3 employed the T7 homolog (SEQ ID NO:6) and Sample 4 employed the A7 homolog (SEQ ID NO:5). Results were determined by HPLC as described above. FIG. 8(a) provides the percentage of TERBUTHYLAZINE remaining after a 15 minute exposure to homologs A7, A11, and T7. Samples 1-10 refer to the effect of homolog activity in the presence of 50 uM of: Manganese (1); Mangnesium (2), EDTA (3); cobalt (4); zinc (5); iron (6); copper (7); nickel (8); no metal (9); or no eznyme (10). FIG. 8(b) provides the relative amount of hydroxyterbuthylazine as a measure of TERBUTHYLAZINE degradation for homologs A7 (solid bar), A11 (hatched bar), or T7 (open bar) in the presence or absence of additives 1-10 (supra).

[4] = atrazine-degrading activity of AtzA homologs compared with wild type; conditions: compared with wild-type AtzA or parent homolog
Protocol: Serial dilutions of the transformation reaction were plated onto LB plates containing 50 μg/ml ampicillin, the remainder of the transformation was stored in 25% glycerol and frozen at −80° C.
Environ. Microbiol., 61, 1451-1457 (1995), at a final concentration of 500 μg/ml to produce an opaque suspension of small particles in the clear agar. […] Positive colonies that most rapidly formed the largest clear zones were selected initially for further analysis. The (approximately) 40 best colonies were picked, pooled, grown in the presence of 50 μg/ml ampicillin and plasmid prepared from them.
Enzyme Kinetics. […] The reactions were stopped by boiling the reaction tubes at specific times, the addition of 500 μl acetonitrile and rapid freezing at −80° C. Thawed samples were centrifuged at 14,000 rpm for 10 minutes, the supernatants were filtered through a […] filter, and placed into crimp-seal HPLC vials. HPLC analysis was done as described above.

Row | Molecule | ammonium chloride tolerance relative to wild type ([1]; E. coli clones vs Pseudomonas strain ADP) | effect of inorganic nitrogen source on atrazine degradation (in words) ([1]; atzA fragments expressed in E. coli) | ammonium chloride concentration at which atrazine degradation was still observed ([1]; solid media with atrazine) | ammonium chloride concentration sufficient to inhibit visible clearing [2] | TERBUTHYLAZINE degradation activity (in words) [3] | atrazine degradation activity (in words) [4]
1 | Cl.N [ammonium chloride] | 40-80 fold | unaffected | ≤ 48 mM | 0.6 to 1.2 mM |  | 
2 | B1 |  |  |  |  | better than the wild-type enzyme; also recorded: enhanced TERBUTHYLAZINE degradation activity | enhanced atrazine degradation activity
